{"source": "patent US20190352664A1", "about": "“COMPOSITIONS AND METHODS FOR CONTROLLING GENE EXPRESSION” (priority 2017, published 2019)", "molecules": {"B1": {"name": "AT1G59990.1_1: uORF of AT1G59990.1; peptide SEQ ID NO: 8 (nucleic acid)", "DNA": "ATGAAGAGAGAGACTGAAACAGAGGTTTCTTACTTTCTTCTCTGTATCTCTCATATTTTGCTTAAACCCTAA", "modifications": "listed as DNA, chemistry not fully specified"}, "B2": {"name": "AT1G59700.1_1: uORF of AT1G59700.1; peptide SEQ ID NO: 7 (nucleic acid)", "DNA": "ATGATATGTCCGTTTAGAAACAGACAAAATAAGAAGAAGAAGAAAGAGTCGTGGAGGATTCTTCATTCTTCCTCATCCTCTTCTTCACCGATTCATTAG", "modifications": "listed as DNA, chemistry not fully specified"}, "B3": {"name": "AT1G72390.1: 5′ UTR of transcript (nucleic acid)", "DNA": "CCTTTCTCTTCCGATCGCATCTTCTTCAAAAATTTCCCACCTGTGTTTCACAAATTCCATGTTTATGAATTCTTCATTGCTCTATTCTTAGTCACCTTTGATTTCTCTCGCTTTCTATCCGATCCAATTGTTTGATGATCTTCTCTGTAACAAGCTCATAAGGTTTGAGCTTCATCTCTCTGGAGAGAATCC"}, "B4": {"name": "AT1G59990.1: 5′ UTR of transcript; DEA(D/H)-box RNA helicase family protein (nucleic acid)", "DNA": "AGTGAGCTAATGAAGAGAGAGACTGAAACAGAGGTTTCTTACTTTCTTCTCTGTATCTCTCATATTTTGCTTAAACCCTAAAACCCTTTTTGGATTAGGTTTTCTCCAAATCTTATCCGCCGTGATAAAATCTGATTGCTTTTTTTCTTCATGAAAGTTTGATTTGTGAAACTCG"}, "B5": {"name": "AT2G34630.1: 5′ UTR of transcript; geranyl diphosphate synthase 1 (nucleic acid)", "DNA": "AAGCGAACAAGTCTTTGCCTCTTTGGTTTACTTTCCTCTGTTTTCGATCCATTTAGAAAATGTTATTCACGAGGAGTGTTGCTCGGATTTCTTCTAAGTTTCTGAGAAACCGTAGCTTCTATGGCTCCTCTCAATCTCTCGCCTCTCATCGGTTCGCAATCATTCCCGATCAGGGTCACTCTTGTTCTGACTCTCCACACAAGTAGGGTTACGTTTGCAGAACAACTTATTCATTGAAATCTCCGGTTTTTGGTGGATTTAGTCATCAACTCTATCACCAGAGTAGCTCCTTGGTTGAGGAGGAGCTTGACCCATTTTCGCTTGTTGCCGATGAGCTGTCACTTCTTAGTAATAAGTTGAGAGAG"}}, "data": [{"tested_on": "Arabidopsis", "assay": "Ribo-seq and RNA-seq global translatome profiling (translational efficiency TE, mORF/uORF ribo-shift) upon elf18 treatment", "type": "in vivo", "parameters": "key to score (Ribo-shift): Up: ribo-shift up (i.e., increased mORF/uORF ratio); Down: ribo-shift down (i.e., decreased mORF/uORF ratio)", "details": "shift of mORF/uORF ratio, elf18 vs Mock; per uORF", "values": [{"molecule": "AT3G15030.1_2: uORF of AT3G15030.1; peptide SEQ ID NO: 16 (DNA ATGGGTTAG; listed as DNA, chemistry not fully specified)", "score (Ribo-shift)": "Down"}, {"molecule": "AT1G12580.1_1: uORF of AT1G12580.1; peptide SEQ ID NO: 1 (DNA ATGCAGCTTGCGATTTCATAG; listed as DNA, chemistry not fully specified)", "score (Ribo-shift)": "Up"}, {"molecule": "AT4G34460.1_1: uORF of AT4G34460.1; peptide SEQ ID NO: 30 (DNA ATGAACCTTCTTCTCTTCTAG; listed as DNA, chemistry not fully specified)", "score (Ribo-shift)": "Up"}, {"molecule": "AT4G18570.1_1: uORF of AT4G18570.1; peptide SEQ ID NO: 23 (DNA ATGCTTTTAATTTCCATGCAAATCTCTCCTTTCTTCTCAAGTCATTTTTGA; listed as DNA, chemistry not fully specified)", "score (Ribo-shift)": "Up"}, {"molecule": "AT1G72390.1_1: uORF of AT1G72390.1; peptide SEQ ID NO: 9 (DNA ATGTTTATGAATTCTTCATTGCTCTATTCTTAG; listed as DNA, chemistry not fully specified)", "score (Ribo-shift)": "Down"}, {"molecule": "AT2G47210.1_1: uORF of AT2G47210.1; peptide SEQ ID NO: 13 (DNA ATGATAGCTACCCAGTAA; listed as DNA, chemistry not fully specified)", "score (Ribo-shift)": "Up"}, {"molecule": "AT5G11790.1_1: uORF of AT5G11790.1; peptide SEQ ID NO: 33 (DNA ATGGAAAGATAA; listed as DNA, chemistry not fully specified)", "score (Ribo-shift)": "Down"}, {"molecule": "AT5G14930.1_1: uORF of AT5G14930.1; peptide SEQ ID NO: 34 (DNA ATGGACTCTCGTTCTCAGACATTTATTTCTCTCAGTCTTACAATATAA; listed as DNA, chemistry not fully specified)", "score (Ribo-shift)": "Down"}, {"molecule": "AT3G63340.1_1: uORF of AT3G63340.1; peptide SEQ ID NO: 20 (DNA ATGAAGCAATTGTTCCTTTCAAGCATGTTTACGAGCAAAAGAGTGAAAGGGTAG; listed as DNA, chemistry not fully specified)", "score (Ribo-shift)": "Down"}, {"molecule": "AT4G38950.1_1: uORF of AT4G38950.1; peptide SEQ ID NO: 32 (DNA ATGTGCCCCAAAAGATAA; listed as DNA, chemistry not fully specified)", "score (Ribo-shift)": "Down"}, {"molecule": "AT4G37925.1_1: uORF of AT4G37925.1; peptide SEQ ID NO: 31 (DNA ATGGTTCTGTAA; listed as DNA, chemistry not fully specified)", "score (Ribo-shift)": "Riboshift Down ATGGTTCTGTAA (SEQ ID"}, {"molecule": "AT4G32660.1_1: uORF of AT4G32660.1; peptide SEQ ID NO: 28 (DNA ATGTCGTCGCGGTTCGACCCCAAGGGATTTGGCCGGTAA; listed as DNA, chemistry not fully specified)", "score (Ribo-shift)": "Down"}, {"molecule": "AT4G26080.1_3: uORF of AT4G26080.1; peptide SEQ ID NO: 27 (DNA ATGTGTTTCTTCTTGTCTTCCTAG; listed as DNA, chemistry not fully specified)", "score (Ribo-shift)": "Down"}, {"molecule": "AT2G42950.1_1: uORF of AT2G42950.1; peptide SEQ ID NO: 12 (DNA ATGATCTTACGTGAAATTGCAGCCTAA; listed as DNA, chemistry not fully specified)", "score (Ribo-shift)": "Down"}, {"molecule": "ATG48300.1_1: uORF of AT1G48300.1; peptide SEQ ID NO: 6 (DNA ATGCGGCGAGGAGAAAGAGAAGGTTAA; listed as DNA, chemistry not fully specified)", "score (Ribo-shift)": "Up"}, {"molecule": "AT4G32800.1_1: uORF of AT4G32800.1; peptide SEQ ID NO: 29 (DNA ATGATAGAAACAAGAACTATCTTTTTATAA; listed as DNA, chemistry not fully specified)", "score (Ribo-shift)": "Down"}, {"molecule": "AT3G02570.1_2: uORF of AT3G02570.1; peptide SEQ ID NO: 14 (DNA ATGCTTGAGATATTTTGTTTTTACCTCCGAGAAACGGATTTAGATTCGTAA; listed as DNA, chemistry not fully specified)", "score (Ribo-shift)": "Down"}, {"molecule": "AT3G56010.1_1: uORF of AT3G56010.1; peptide SEQ ID NO: 19 (DNA ATGCGTCGCTCTTAA; listed as DNA, chemistry not fully specified)", "score (Ribo-shift)": "Up"}, {"molecule": "AT4G23740.1_1: uORF of AT4G23740.1; peptide SEQ ID NO: 24 (DNA ATGCCAAAAAATAAGAACAAAATTATATCCGTTGCTTGA; listed as DNA, chemistry not fully specified)", "score (Ribo-shift)": "Up"}, {"molecule": "AT3G03070.1_1: uORF of AT3G03070.1; peptide SEQ ID NO: 15 (DNA ATGCGTTGTTTGGTACAGCTTCACGAACAATCTCTCTCTCGATAG; listed as DNA, chemistry not fully specified)", "score (Ribo-shift)": "Down"}, {"molecule": "AT1G30330.13: uORF of AT1G30330.1; peptide SEQ ID NO: 5 (DNA ATGAGTGGGGTGGATTAA; listed as DNA, chemistry not fully specified)", "score (Ribo-shift)": "Down"}, {"molecule": "AT4G23740.1_2: uORF of AT4G23740.1; peptide SEQ ID NO: 25 (DNA ATGGCGGTTCTTCACATTATCTTCACTGCGTAA; listed as DNA, chemistry not fully specified)", "score (Ribo-shift)": "Down"}, {"molecule": "AT5G57460.1_1: uORF of AT5G57460.1; peptide SEQ ID NO: 37 (DNA ATGTTTCAATCTAACCATTGA; listed as DNA, chemistry not fully specified)", "score (Ribo-shift)": "Up"}, {"molecule": "AT1G30330.1_1: uORF of AT1G30330.1; peptide SEQ ID NO: 4 (DNA ATGTTCTGCAACAGTTGA; listed as DNA, chemistry not fully specified)", "score (Ribo-shift)": "Up"}, {"molecule": "AT1G19270.1_3: uORF of AT1G19270.1; peptide SEQ ID NO: 3 (DNA ATGAGCAGATAG; listed as DNA, chemistry not fully specified)", "score (Ribo-shift)": "Down"}, {"molecule": "AT1700.1_1: uORF of AT1G16700.1; peptide SEQ ID NO: 2 (DNA ATGTTCTTGTGA; listed as DNA, chemistry not fully specified)", "score (Ribo-shift)": "Down"}, {"molecule": "AT4G11110.1_1: uORF of AT4G11110.1; peptide SEQ ID NO: 21 (DNA ATGATTGGCTTCTCACGATTCGATTTTTCCGGCTCCTGTTCTTAA; listed as DNA, chemistry not fully specified)", "score (Ribo-shift)": "Up"}, {"molecule": "AT2G34630.1_2: uORF of AT2G34630.1; peptide SEQ ID NO: 10 (DNA ATGAGCTGTCACTTCTTAGTAATAAGTTGA; listed as DNA, chemistry not fully specified)", "score (Ribo-shift)": "Up"}, {"molecule": "AT3G18140.1_2: uORF of AT3G18140.1; peptide SEQ ID NO: 17 (DNA ATGGTTGGTTTAATATTTCAATCGGGATAA; listed as DNA, chemistry not fully specified)", "score (Ribo-shift)": "Down"}, {"molecule": "AT4G17840.1_4: uORF of AT4G17840.1; peptide SEQ ID NO: 22 (DNA ATGTTATAA; listed as DNA, chemistry not fully specified)", "score (Ribo-shift)": "Up"}, {"molecule": "B1", "score (Ribo-shift)": "Down"}, {"molecule": "B2", "score (Ribo-shift)": "Down"}]}, {"tested_on": "Arabidopsis", "assay": "Ribo-seq and RNA-seq global translatome profiling (translational efficiency TE, mORF/uORF ribo-shift) upon elf18 treatment", "type": "in vivo", "parameters": "key to score (Ribo-shift): Up: ribo-shift up (i.e., increased mORF/uORF ratio); Down: ribo-shift down (i.e., decreased mORF/uORF ratio)", "details": "translational efficiency fold change, elf18 vs Mock; listed as shows 5′ UTR of the transcript", "values": [{"molecule": "AT1G48300.1: 5′ UTR of transcript (DNA CGAGATGCGGCGAGGAGAAAGAGAAGGTTAAGGTT; listed as DNA, chemistry not fully specified)", "score (TE change)": "TEup (448 had increased TEfc)"}, {"molecule": "B3", "score (TE change)": "TEup (448 had increased TEfc)"}, {"molecule": "B4", "score (TE change)": "TEdown (389 genes displayed decreased TEfc (|z|≥1.5))"}, {"molecule": "B5", "score (TE change)": "TEup (448 had increased TEfc)"}]}]}
